Source: the supplement of paper PMC7214452

How the values were obtained:
Assay in all cases: normalized area under the dose-response curve (viability relative to DMSO control) (fraction); higher = less sensitive (more viable cells)
Settings in all cases: exposure time not given
[1] = tested on: OCI-LY3 (cancer type: DLBCL)
Description: (§1)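 25 myeloma and 15 non-Hodgkin lymphoma cell lines were exposed to each of 76 drugs as 7-point log dilutions (0.01 nM–10 µM) in duplicate. Viability was read with CellTiter-Glo and normalised to DMSO (0.1%) and staurosporine (10 µM) plate controls. Normalised AUC was calculated by the trapezoidal method relative to the negative control.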

FR4 (cancer type: MM) = tested on: FR4 (cancer type: MM)
Description: as §1

AMO1 (cancer type: MM) = tested on: AMO1 (cancer type: MM)
Description: as §1

XG2 (cancer type: MM) = tested on: XG2 (cancer type: MM)
Description: as §1

L363 (cancer type: MM) = tested on: L363 (cancer type: MM)
Description: as §1

[2] = tested on: RPMI 8226 (cancer type: MM)
Description: as §1

SKMM2 (cancer type: MM) = tested on: SKMM2 (cancer type: MM)
Description: as §1

Se-Ax (cancer type: TCL) = tested on: Se-Ax (cancer type: TCL)
Description: as §1

[3] = tested on: HuT 78 (cancer type: TCL)
Description: as §1

KMS34 (cancer type: MM) = tested on: KMS34 (cancer type: MM)
Description: as §1

[4] = tested on: JVM2 (cancer type: Mantle)
Description: as §1

[5] = tested on: KMS28PE (cancer type: MM)
Description: as §1

[6] = tested on: NCI-H929 (cancer type: MM)
Description: as §1

[7] = tested on: OCI-MY5 (cancer type: MM)
Description: as §1

KMS11 (cancer type: MM) = tested on: KMS11 (cancer type: MM)
Description: as §1

LP1 (cancer type: MM) = tested on: LP1 (cancer type: MM)
Description: as §1

U266 (cancer type: MM) = tested on: U266 (cancer type: MM)
Description: as §1

MM1.R (cancer type: MM) = tested on: MM1.R (cancer type: MM)
Description: as §1

[8] = tested on: SU-DHL2 (cancer type: DLBCL)
Description: as §1

My-La (cancer type: TCL) = tested on: My-La (cancer type: TCL)
Description: as §1

[9] = tested on: Karpas-299 (cancer type: TCL)
Description: as §1

[10] = tested on: OCI-LY19 (cancer type: DLBCL)
Description: as §1

KMS26 (cancer type: MM) = tested on: KMS26 (cancer type: MM)
Description: as §1

[11] = tested on: OCI-LY1 (cancer type: DLBCL)
Description: as §1

[12] = tested on: OCI-MY5/Vec (cancer type: MM)
Description: as §1

[13] = tested on: KMS12PE (cancer type: MM)
Description: as §1

JJN3 (cancer type: MM) = tested on: JJN3 (cancer type: MM)
Description: as §1

EJM (cancer type: MM) = tested on: EJM (cancer type: MM)
Description: as §1

[14] = tested on: KMS28BM (cancer type: MM)
Description: as §1

[15] = tested on: SU-DHL6 (cancer type: DLBCL)
Description: as §1

[16] = tested on: OCI-MY7 (cancer type: MM)
Description: as §1

[17] = tested on: Mino (cancer type: Mantle)
Description: as §1

[18] = tested on: Granta-519 (cancer type: Mantle)
Description: as §1

MM1.S (cancer type: MM) = tested on: MM1.S (cancer type: MM)
Description: as §1

[19] = tested on: SR-786 (cancer type: TCL)
Description: as §1

[20] = tested on: SU-DHL1 (cancer type: TCL)
Description: as §1

[21] = tested on: OCI-MY5/CRBN (cancer type: MM)
Description: as §1

[22] = tested on: JeKo-1 (cancer type: Mantle)
Description: as §1

KMS18 (cancer type: MM) = tested on: KMS18 (cancer type: MM)
Description: as §1

OPM2 (cancer type: MM) = tested on: OPM2 (cancer type: MM)
Description: as §1

SMILES | normalized area under the dose-response curve [1] | normalized area under the dose-response curve (FR4 (cancer type: MM)) | normalized area under the dose-response curve (AMO1 (cancer type: MM)) | normalized area under the dose-response curve (XG2 (cancer type: MM)) | normalized area under the dose-response curve (L363 (cancer type: MM)) | normalized area under the dose-response curve [2] | normalized area under the dose-response curve (SKMM2 (cancer type: MM)) | normalized area under the dose-response curve (Se-Ax (cancer type: TCL)) | normalized area under the dose-response curve [3] | normalized area under the dose-response curve (KMS34 (cancer type: MM)) | normalized area under the dose-response curve [4] | normalized area under the dose-response curve [5] | normalized area under the dose-response curve [6] | normalized area under the dose-response curve [7] | normalized area under the dose-response curve (KMS11 (cancer type: MM)) | normalized area under the dose-response curve (LP1 (cancer type: MM)) | normalized area under the dose-response curve (U266 (cancer type: MM)) | normalized area under the dose-response curve (MM1.R (cancer type: MM)) | normalized area under the dose-response curve [8] | normalized area under the dose-response curve (My-La (cancer type: TCL)) | normalized area under the dose-response curve [9] | normalized area under the dose-response curve [10] | normalized area under the dose-response curve (KMS26 (cancer type: MM)) | normalized area under the dose-response curve [11] | normalized area under the dose-response curve [12] | normalized area under the dose-response curve [13] | normalized area under the dose-response curve (JJN3 (cancer type: MM)) | normalized area under the dose-response curve (EJM (cancer type: MM)) | normalized area under the dose-response curve [14] | normalized area under the dose-response curve [15] | normalized area under the dose-response curve [16] | normalized area under the dose-response curve [17] | normalized area under the dose-response curve [18] | normalized area under the dose-response curve (MM1.S (cancer type: MM)) | normalized area under the dose-response curve [19] | normalized area under the dose-response curve [20] | normalized area under the dose-response curve [21] | normalized area under the dose-response curve [22] | normalized area under the dose-response curve (KMS18 (cancer type: MM)) | normalized area under the dose-response curve (OPM2 (cancer type: MM))
CN(C)C/C=C/C(=O)Nc1cc2c(Nc3ccc(F)c(Cl)c3)ncnc2cc1O[C@H]1CCOC1 [Afatinib] | 0.819 | 0.685 | 0.562 | 0.496 | 0.521 | 0.467 | 0.642 | 0.604 | 0.496 | 0.461 | 0.497 | 0.529 | 0.63 | 0.372 | 0.53 | 0.637 | 0.801 | 0.49 | 0.758 | 0.74 | 0.636 | 0.739 | 0.848 | 0.796 | 0.477 | 0.53 | 0.57 | 0.66 | 0.682 | 0.811 | 0.62 | 0.643 | 0.69 | 0.5 | 0.709 | 0.558 | 0.548 | 0.531 | 0.822 | 0.692
Cn1ncc(Cl)c1-c1cc(C(=O)N[C@H](CN)Cc2cccc(F)c2)sc1Cl [Afuresertib] | 0.851 | 0.591 | 0.414 | 0.436 | 0.375 | 0.331 | 0.49 | 0.416 | 0.758 | 0.211 | 0.652 | 0.282 | 0.33 | 0.398 | 0.439 | 0.384 | 0.525 | 0.2 | 0.913 | 0.784 | 0.765 | 0.739 | 0.499 | 0.657 | 0.637 | 0.49 | 0.55 | 0.486 | 0.363 | 0.816 | 0.7 | 0.813 | 0.821 | 0.26 | 0.713 | 0.48 | 0.742 | 0.808 | 0.293 | 0.369
COc1cc(Nc2ncc3c(n2)-c2ccc(Cl)cc2C(c2c(F)cccc2OC)=NC3)ccc1C(=O)O [Alisertib] | 0.878 | 0.916 | 0.7 | 0.69 | 0.872 | 0.927 | 0.967 | 0.73 | 0.826 | 0.684 | 0.706 | 0.918 | 0.94 | 0.881 | 0.772 | 0.851 | 0.859 | 0.85 | 0.964 | 0.851 | 0.816 | 0.853 | 0.887 | 0.794 | 0.809 | 0.94 | 0.919 | 0.889 | 0.913 | 0.946 | 0.92 | 0.622 | 0.709 | 0.85 | 0.802 | 0.761 | 0.85 | 0.716 | 0.833 | 0.957
CC(=O)OC[C@H]1O[C@@H]([S-])[C@H](OC(C)=O)[C@@H](OC(C)=O)[C@@H]1OC(C)=O.CCP(CC)CC.[Au+] [Auranofin] | 0.553 | – | – | – | – | – | – | 0.247 | 0.239 | – | 0.157 | – | 0.08 | – | – | – | – | 0.05 | 0.611 | – | – | 0.344 | – | 0.372 | 0.0417 | 0.33 | – | – | – | 0.553 | 0.07 | – | – | 0.09 | – | 0.139 | 0.0579 | – | – | –
Nc1ncn([C@@H]2O[C@H](CO)[C@@H](O)[C@H]2O)c(=O)n1 [Azacitidine] | 0.707 | 0.427 | 0.496 | 0.612 | 0.488 | 0.665 | 0.767 | 0.637 | 0.419 | 0.64 | 0.552 | 0.678 | 0.4 | 0.564 | 0.545 | 0.766 | 0.679 | 0.65 | 0.673 | 0.87 | 0.624 | 0.716 | 0.757 | 0.508 | 0.702 | 0.56 | 0.645 | 0.635 | 0.774 | 0.65 | 0.6 | 0.807 | 0.778 | 0.6 | 0.74 | 0.453 | 0.756 | 0.72 | 0.736 | 0.535
